Measured values as given in patent US9789181B2, “PAN-DR binding polypeptides and uses thereof” (Epimmune Inc., priority 2009, dated 2017).
Where no end group is shown, it is not given here.

Legend:
purified HLA DRB1 *1302 = purified HLA DRB1 *1302 (Homo sapiens, UniProt P01903+P01911, A100E/A169T/K41T/L162R/M171V/P40S/Q125H/Q178H/Q39Y/Q99D/R42S/S66N/T262R/V115G/W38E/Y61H); experiment: IC50nM to purified HLA | DRB1 *1302
Method: (§1) Table printed on a drawing sheet, FIG. 1
Head of the field: IC50nM to purified HLA | DRB1 *1302
(§2) First copying reader's note: The comma is the decimal sign and the point a thousands separator (e.g. 21.831); some values are printed bold or italic and some SEQ ID NOs underlined, with no legend on the sheet.
Where the first naming reader finds the target: head: IC50nM to purified HLA | DRB1 *1302

purified HLA DRB5 *0101 = purified HLA DRB5 *0101 (Homo sapiens, UniProt P01903+Q30154); experiment: IC50nM to purified HLA | DRB5 *0101
Method: as §1
(§3) Head of the field: IC50nM to purified HLA | DRB5 *0101
as §2
(§4) Where the first naming reader finds the target: head: IC50nM to purified HLA | DRB5 *0101

purified HLA DRB1 *0404 = purified HLA DRB1 *0404 (Homo sapiens, UniProt P01903+P01911, A100R/A169T/F76Y/I96L/K127E/L162R/M171V/N62H/P40V/Q125Y/R42H/S133A/S149N/S66Y/V209L/W38E); experiment: IC50nM to purified HLA | DRB1 *0404
Method: as §1
(§5) Head of the field: IC50nM to purified HLA | DRB1 *0404
as §2
(§6) Where the first naming reader finds the target: head: IC50nM to purified HLA | DRB1 *0404

purified HLA DRB4 *0101 = purified HLA DRB4 *0101 (Homo sapiens, UniProt P01903+P13762, G164S); experiment: IC50nM to purified HLA | DRB4 *0101
Method: as §1
(§7) Head of the field: IC50nM to purified HLA | DRB4 *0101
as §2
(§8) Where the first naming reader finds the target: head: IC50nM to purified HLA | DRB4 *0101

purified HLA DRB1 *0701 = purified HLA DRB1 *0701 (Homo sapiens, UniProt P01903+P01911, A100R/A102G/A103Q/D57E/D86V/E43K/F76Y/K127E/L162R/M171V/P40G/Q125H/Q99D/R33Q/R42Y/R54Q/S133A/S66F/T210M/V115G/Y107V/Y59L/Y89S); experiment: IC50nM to purified HLA | DRB1 *0701
Method: as §1
Head of the field: IC50nM to purified HLA | DRB1 *0701
as §2
Where the first naming reader finds the target: head: IC50nM to purified HLA | DRB1 *0701

purified HLA DRB1 *1501 = purified HLA DRB1 *1501 (Homo sapiens, UniProt P01903+P01911); experiment: IC50nM to purified HLA | DRB1 *1501
Method: as §1
(§9) Head of the field: IC50nM to purified HLA | DRB1 *1501
as §2
(§10) Where the first naming reader finds the target: head: IC50nM to purified HLA | DRB1 *1501

purified HLA DRB1 *0101 = purified HLA DRB1 *0101 (Homo sapiens, UniProt P01903+P01911, A100R/D57E/F55L/F60I/F76Y/I96L/L162R/M171V/P40L/Q125E/R42F/V115G/Y59C); experiment: IC50nM to purified HLA | DRB1 *0101
Method: as §1
(§11) Head of the field: IC50nM to purified HLA | DRB1 *0101
as §2
(§12) Where the first naming reader finds the target: head: IC50nM to purified HLA | DRB1 *0101

purified HLA DRB1 *0802 = purified HLA DRB1 *0802 (Homo sapiens, UniProt P01903+P01911, A100R/A103L/A169T/F76Y/H45Y/I96F/K41T/L162R/M171V/P40S/Q125H/Q178H/Q39Y/Q99D/R218S/R42G/S66Y/V115G/W38E); experiment: IC50nM to purified HLA | DRB1 *0802
Method: as §1
(§13) Head of the field: IC50nM to purified HLA | DRB1 *0802
as §2
(§14) Where the first naming reader finds the target: head: IC50nM to purified HLA | DRB1 *0802

purified HLA DRB1 *0301 = purified HLA DRB1 *0301 (Homo sapiens, UniProt P01903+P01911, A100K/A102G/A103R/A169T/F55Y/I96L/K41T/L162R/M171V/P40S/Q125H/Q178H/Q39Y/R42S/S66N/T106N/T262R/W38E/Y61H); experiment: IC50nM to purified HLA | DRB1 *0301
Method: as §1
(§15) Head of the field: IC50nM to purified HLA | DRB1 *0301
as §2
(§16) Where the first naming reader finds the target: head: IC50nM to purified HLA | DRB1 *0301

purified HLA DRB1 *0401 = purified HLA DRB1 *0401 (Homo sapiens, UniProt P01903+P01911, A100K/A169T/F76Y/I96L/K127E/L162R/M171V/N62H/P40V/Q125Y/R42H/S133A/S149N/S66Y/V115G/V209L/W38E); experiment: IC50nM to purified HLA | DRB1 *0401
Method: as §1
Head of the field: IC50nM to purified HLA | DRB1 *0401
as §2
Where the first naming reader finds the target: head: IC50nM to purified HLA | DRB1 *0401

HLA DRB1 *1101 = HLA DRB1 *1101 (Homo sapiens, UniProt P01903+P01911, A100R/A169T/A87E/I96F/K41T/L162R/M171V/P40S/Q125H/Q178H/Q39Y/Q99D/R42S/S66Y/T262R/V115G/W38E); experiment: IC50nM to purified HLA | DRB1 *1101
Method: (§17) Table printed on a drawing sheet, FIG. 1 (contd.)
Head of the field: IC50nM to purified HLA | DRB1 *1101
(§18) First copying reader's note: Continued from the preceding sheet of FIG. 1; decimal commas are used, the analog names give the substituted residues and positions in PADRE, and some values are printed in italics or bold and some SEQ ID NOs bold and underlined without a legend on this sheet.
Where the first naming reader finds the target: head: IC50nM to purified HLA | DRB1 *1101

HLA DRB4 *0101 = HLA DRB4 *0101 (Homo sapiens, UniProt P01903+P13762, G164S); experiment: IC50nM to purified HLA | DRB4 *0101
Method: as §17, §7, §18, §8

HLA DRB1 *0802 = HLA DRB1 *0802 (Homo sapiens, UniProt P01903+P01911, A100R/A103L/A169T/F76Y/H45Y/I96F/K41T/L162R/M171V/P40S/Q125H/Q178H/Q39Y/Q99D/R218S/R42G/S66Y/V115G/W38E); experiment: IC50nM to purified HLA | DRB1 *0802
Method: as §17, §13, §18, §14

HLA DRB1 *0405 = HLA DRB1 *0405 (Homo sapiens, UniProt P01903+P01911, A100R/A169T/D86S/F76Y/I96L/K127E/L162R/M171V/N62H/P40V/Q125Y/R42H/S133A/S149N/S66Y/V115G/V209L/W38E); experiment: IC50nM to purified HLA | DRB1 *0405
Method: as §17
(§19) Head of the field: IC50nM to purified HLA | DRB1 *0405
as §18
(§20) Where the first naming reader finds the target: head: IC50nM to purified HLA | DRB1 *0405

HLA DRB1 *0101 = HLA DRB1 *0101 (Homo sapiens, UniProt P01903+P01911, A100R/D57E/F55L/F60I/F76Y/I96L/L162R/M171V/P40L/Q125E/R42F/V115G/Y59C); experiment: IC50nM to purified HLA | DRB1 *0101
Method: as §17, §11, §18, §12

HLA DRB1 *1501 = HLA DRB1 *1501 (Homo sapiens, UniProt P01903+P01911); experiment: IC50nM to purified HLA | DRB1 *1501
Method: as §17, §9, §18, §10

HLA DRB1 *0301 = HLA DRB1 *0301 (Homo sapiens, UniProt P01903+P01911, A100K/A102G/A103R/A169T/F55Y/I96L/K41T/L162R/M171V/P40S/Q125H/Q178H/Q39Y/R42S/S66N/T106N/T262R/W38E/Y61H); experiment: IC50nM to purified HLA | DRB1 *0301
Method: as §17, §15, §18, §16

HLA DRB5 *0101 = HLA DRB5 *0101 (Homo sapiens, UniProt P01903+Q30154); experiment: IC50nM to purified HLA | DRB5 *0101
Method: as §17, §3, §18, §4

HLA DRB1 *0404 = HLA DRB1 *0404 (Homo sapiens, UniProt P01903+P01911, A100R/A169T/F76Y/I96L/K127E/L162R/M171V/N62H/P40V/Q125Y/R42H/S133A/S149N/S66Y/V209L/W38E); experiment: IC50nM to purified HLA | DRB1 *0404
Method: as §17, §5, §18, §6

purified HLA DRB1 *0405 = purified HLA DRB1 *0405 (Homo sapiens, UniProt P01903+P01911, A100R/A169T/D86S/F76Y/I96L/K127E/L162R/M171V/N62H/P40V/Q125Y/R42H/S133A/S149N/S66Y/V115G/V209L/W38E); experiment: IC50nM to purified HLA | DRB1 *0405
Method: as §1, §19, §2, §20

Chain of purified HLA DRB4 *0101 (P01903 26-254 limits assumed): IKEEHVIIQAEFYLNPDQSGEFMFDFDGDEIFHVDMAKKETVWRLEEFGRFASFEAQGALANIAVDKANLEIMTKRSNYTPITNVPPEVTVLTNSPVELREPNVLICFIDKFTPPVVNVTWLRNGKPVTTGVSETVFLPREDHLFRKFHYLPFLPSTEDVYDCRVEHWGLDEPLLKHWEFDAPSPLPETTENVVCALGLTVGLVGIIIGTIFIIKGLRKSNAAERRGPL
Chain of purified HLA DRB4 *0101 (P13762 whole entry G164S): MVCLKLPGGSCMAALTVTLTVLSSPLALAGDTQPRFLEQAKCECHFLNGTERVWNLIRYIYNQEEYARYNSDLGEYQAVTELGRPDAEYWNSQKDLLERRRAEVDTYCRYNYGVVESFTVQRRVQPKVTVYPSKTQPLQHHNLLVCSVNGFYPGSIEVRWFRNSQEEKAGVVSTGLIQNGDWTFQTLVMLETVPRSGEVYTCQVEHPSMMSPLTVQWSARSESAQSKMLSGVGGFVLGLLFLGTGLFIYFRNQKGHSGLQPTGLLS
Chain of purified HLA DRB1 *0301 (P01903 26-254 limits assumed, other chains not shown): as the sequence (P01903 26-254 limits assumed) above
Chain of HLA DRB1 *0301 (P01903 26-254 limits assumed, other chains not shown): as the sequence (P01903 26-254 limits assumed) above
Chain of purified HLA DRB1 *1302 (P01903 26-254 limits assumed, other chains not shown): as the sequence (P01903 26-254 limits assumed) above
Chain of HLA DRB1 *1101 (P01903 26-254 limits assumed, other chains not shown): as the sequence (P01903 26-254 limits assumed) above
Chain of HLA DRB4 *0101 (P01903 26-254 limits assumed): as above
Chain of HLA DRB4 *0101 (P13762 whole entry G164S): as the sequence (P13762 whole entry G164S) above

IC50 (purified HLA DRB1 *1302) | IC50 (purified HLA DRB5 *0101) | IC50 (purified HLA DRB1 *0404) | IC50 (purified HLA DRB4 *0101) | IC50 (purified HLA DRB1 *0701) | IC50 (purified HLA DRB1 *1501) | IC50 (purified HLA DRB1 *0101) | IC50 (purified HLA DRB1 *0802) | IC50 (purified HLA DRB1 *0301) | IC50 (purified HLA DRB1 *0401) | IC50 (HLA DRB1 *1101) | IC50 (HLA DRB4 *0101) | IC50 (HLA DRB1 *0802) | IC50 (HLA DRB1 *0405) | IC50 (HLA DRB1 *0101) | IC50 (HLA DRB1 *1501) | IC50 (HLA DRB1 *0301) | IC50 (HLA DRB5 *0101) | IC50 (HLA DRB1 *0404) | IC50 (purified HLA DRB1 *0405) | Sequence
1320 nM | 30 nM | 5.7 nM | 526 nM | 94 nM | 4.2 nM | 3.8 nM | 11 nM | 214 nM | 3.4 nM | – | – | – | – | – | – | – | – | – | – | AAAHFVAAYTLHAAA [SEQ ID NO: 27]
– | – | – | – | – | – | – | – | – | – | 11 nM | 253 nM | 13 nM | 7.6 nM | 4.5 nM | 10 nM | 147 nM | – | – | – | AAANFVAAWTLHAAA [SEQ ID NO: 51]
– | – | – | – | – | – | – | – | – | – | 14 nM | – | 8.5 nM | 18 nM | 4.4 nM | 12 nM | 372 nM | 8.7 nM | 5.9 nM | – | AAANFVAAWTLKAAA [SEQ ID NO: 50]
– | 30 nM | – | 115 nM | 69 nM | 38 nM | 5.3 nM | – | 139 nM | 3.1 nM | – | – | – | – | – | – | – | – | – | – | AAAWFVAAFTLHAAA [SEQ ID NO: 9]
54 nM | – | 5.2 nM | 703 nM | 49 nM | 53 nM | 4.5 nM | – | 130 nM | 3.3 nM | – | – | – | – | – | – | – | – | – | – | AAAYFVAANTLHAAA [SEQ ID NO: 24]
– | – | – | 279 nM | 55 nM | – | 3.7 nM | 9.7 nM | 119 nM | – | – | – | – | – | – | – | – | – | – | 6.9 nM | AAAYFVAAWTLHAAA [SEQ ID NO: 21]
